According to ChEMBL document CHEMBL5620417, “N-aryltetrahydroisoquinoline derivatives as HA-CD44 interaction inhibitors: Design, synthesis, computational studies, and antitumor effect” (Eur J Med Chem, 2023):
pEC50: −log10 of the molar value. Activity calls are given as the source filed them. The calls are words filed in the database; no cut-off is given here.

Key:
[1] = system: A549; experiment: Antiproliferative activity against human A549 cells assessed as reduction in cell viability incubated for 5 days by PrestoBlue reagent based glo-max fluorescence assay; format: functional; details: A549, 120 h
[2] = system: MDA-MB-231; experiment: Antiproliferative activity against human MDA-MB-231 cells assessed as reduction in cell viability incubated for 5 days by PrestoBlue reagent based glo-max fluorescence assay; format: functional; details: MDA-MB-231, 120 h
[3] = system: MDA-MB-231; experiment: Antiproliferative activity against human MDA-MB-231 cells assessed as reduction in cell viability at <=70 uM incubated for 5 days by PrestoBlue reagent based glo-max fluorescence assay; format: functional; details: time 5.0 day
[4] = system: MDA-MB-231; experiment: Antiproliferative activity against human MDA-MB-231 cells assessed as reduction in cell viability at >=100 uM incubated for 5 days by PrestoBlue reagent based glo-max fluorescence assay; format: functional; details: time 5.0 day
[5] = system: A549; experiment: Antiproliferative activity against human A549 cells assessed as reduction in cell viability at >=100 uM incubated for 5 days by PrestoBlue reagent based glo-max fluorescence assay; format: functional; details: time 5.0 day
[6] = system: MDA-MB-231; experiment: Antiproliferative activity against human MDA-MB-231 cells assessed as reduction in cell viability incubated for 5 days pre-incubated with anti-CD44 antibody IM7 by PrestoBlue reagent based glo-max fluorescence assay relative to control; format: functional; details: time 5 day
[7] = target: CD44 antigen (Homo sapiens) (UniProt P16070); experiment: Displacement of HA-FITC from CD44 in human MDA-MB-231 cells assessed as decrease in fluorescent intensity at 120 ug/ml incubated for 45 mins by competitive binding assay based flow cytometric analysis; format: cell-based; details: dose 120.0 µg/ml
Sequence of CD44 antigen (Homo sapiens) (P16070 whole entry): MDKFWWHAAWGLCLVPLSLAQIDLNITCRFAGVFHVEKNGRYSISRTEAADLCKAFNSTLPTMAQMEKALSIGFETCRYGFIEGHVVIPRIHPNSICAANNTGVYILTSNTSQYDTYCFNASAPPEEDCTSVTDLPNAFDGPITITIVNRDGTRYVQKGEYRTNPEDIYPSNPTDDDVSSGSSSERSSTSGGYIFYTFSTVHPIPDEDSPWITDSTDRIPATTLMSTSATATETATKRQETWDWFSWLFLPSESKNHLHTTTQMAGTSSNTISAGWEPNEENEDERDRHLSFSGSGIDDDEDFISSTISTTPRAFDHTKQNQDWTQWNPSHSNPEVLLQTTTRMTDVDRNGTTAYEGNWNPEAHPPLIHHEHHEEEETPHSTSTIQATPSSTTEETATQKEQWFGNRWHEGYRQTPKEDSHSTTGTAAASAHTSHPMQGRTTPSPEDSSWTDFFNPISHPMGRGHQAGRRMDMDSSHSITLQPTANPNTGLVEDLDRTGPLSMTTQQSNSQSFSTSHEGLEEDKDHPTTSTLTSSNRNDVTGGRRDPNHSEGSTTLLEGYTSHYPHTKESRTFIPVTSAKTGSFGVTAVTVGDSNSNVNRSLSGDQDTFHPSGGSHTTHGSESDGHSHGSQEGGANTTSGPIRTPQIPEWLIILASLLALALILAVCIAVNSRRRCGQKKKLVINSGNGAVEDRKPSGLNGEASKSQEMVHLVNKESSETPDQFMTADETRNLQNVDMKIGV

[8] = system: MDA-MB-231; experiment: Antiproliferative activity against human MDA-MB-231 cells assessed as fold change in cell viability incubated for 5 days by PrestoBlue reagent based glo-max fluorescence assay; format: functional; details: time 5 day
[9] = system: MDA-MB-231; experiment: Antiproliferative activity against human MDA-MB-231 cells assessed as decrease in viable cells incubated for 5 days by PrestoBlue reagent based glo-max fluorescence assay; format: functional, cell-based; details: time 5.0 day
[10] = system: MDA-MB-231; experiment: Antiproliferative activity against human MDA-MB-231 cells assessed as increase in dead cell in spheroid at 1 uM incubated for 5 days by PrestoBlue reagent based microscopic analysis; format: functional; details: time 5.0 day
[11] = system: MDA-MB-231; experiment: Antiproliferative activity against human MDA-MB-231 cells assessed as change in spheroid integrity at 1 uM incubated for 5 days by PrestoBlue reagent based microscopic analysis; format: functional, cell-based; details: time 5.0 day
[12] = system: MDA-MB-231; experiment: Antiproliferative activity against human MDA-MB-231 cells assessed as spheroid disaggregation at 100 uM incubated for 5 days by PrestoBlue reagent based microscopic analysis; format: functional, cell-based; details: time 5.0 day

SMILES	pEC50 [1]	pEC50 [2]	Activity [5]	further results
Nc1cccc2c1CN(Cc1ccc(Br)cc1)CC2	4.42	4.11	–	–
Nc1cccc2c1CCN(S(=O)(=O)c1ccc([N+](=O)[O-])cc1)C2	–	–	inactive	Activity [4]: inactive
COc1cc2c(cc1OC)CN(S(=O)(=O)c1ccc([N+](=O)[O-])cc1)CC2	–	–	inactive	Activity [4]: inactive
Cc1ccc(S(=O)(=O)N2CCc3c(N)cccc3C2)cc1	–	–	inactive	Activity [4]: inactive
Brc1ccc(CN2CCc3ccccc3C2)cc1	4.42	4.11	–	–
COc1cc2c(cc1OC)CN(S(=O)(=O)c1ccc(C)cc1)CC2	–	–	inactive	Activity [4]: inactive
Nc1cccc2c1CN(S(=O)(=O)c1ccc([N+](=O)[O-])cc1)CC2	–	–	inactive	Activity [4]: inactive
COc1cc2c(cc1OC)CN(Cc1cc(OC)c(OC)c(OC)c1)CC2	4.11	4.15	–	Activity [3]: Active
COc1cc2c(cc1OC)CN(Cc1ccc(Br)cc1)CC2	4.42	4.11	–	–
Cc1ccc(S(=O)(=O)N2CCc3ccccc3C2)cc1	–	–	inactive	Activity [4]: inactive
Cc1ccc(S(=O)(=O)N2CCc3cccc(N)c3C2)cc1	–	–	inactive	Activity [4]: inactive
Nc1cccc2c1CCN(Cc1ccc(Br)cc1)C2	4.42	4.11	–	–

Second part, led by results:

pEC50 [1]	pEC50 [2]	SMILES	Activity [5]	further results
4.46	4.28	COc1cc2c(cc1OC)CN(Cc1ccc(C(F)(F)F)cc1)CC2	–	–
4.46	4.28	Nc1cccc2c1CCN(Cc1ccc(C(F)(F)F)cc1)C2	–	–
4.14	4.24	COc1cc(CN2CCc3cccc(N)c3C2)cc(OC)c1OC	–	Activity [3]: Active
4.46	4.28	Nc1cccc2c1CN(Cc1ccc(C(F)(F)F)cc1)CC2	–	–
–	4.21	O=[N+]([O-])c1ccc(S(=O)(=O)N2CCc3ccccc3C2)cc1	inactive	–
5.46	5.64	COc1cc(CN2CCc3c(N)cccc3C2)cc(OC)c1OC	–	Activity [6]: 13%; Activity [7]: Active; Activity [3]: Active
4.43	4.50	FC(F)(F)c1ccc(CNc2cccc3c2CN(Cc2ccc(C(F)(F)F)cc2)CC3)cc1	–	–
–	5.75	COc1cc(CN2CCc3c(Br)cccc3C2)cc(OC)c1OC	–	Activity [6]: 24%; Activity [7]: Active; fold change (FC) [8]: 1.3
–	6.23	COc1cc(CN2CCc3c(O)cccc3C2)cc(OC)c1OC	–	Activity [9]: Dose-Dependent Effect; Activity [10]: Active; Activity [11]: Active; Activity [6]: 21%; Activity [12]: Active; Activity [7]: Active; fold change (FC) [8]: 4
4.32	4.70	COc1cc(CN2CCc3ccccc3C2)cc(OC)c1OC	–	Activity [3]: Active
4.46	4.28	FC(F)(F)c1ccc(CN2CCc3ccccc3C2)cc1	–	–
–	5.10	CC(=O)CCN1CCc2ccccc2C1	–	–
